In ChEMBL document CHEMBL5614394, “Novel pleuromutilin derivatives conjugated with phenyl-sulfide and boron-containing moieties as potent antibacterial agents against antibiotic-resistant bacteria” (Eur J Med Chem, 2024):
Values after ≈ are worked out from the molar mass of the structure shown. Active and inactive are the calls of the source. No cut-off for these calls is given here.

Experiments:
[1] = test system: Streptococcus pneumoniae; test: Antibacterial activity against penicillin resistant Streptococcus pneumoniae isolate 20-4 assessed as inhibition of visible growth of bacteria incubated for 24 hrs by CLSI protocol based broth-dilution method; format: functional
[2] = test system: Staphylococcus aureus; test: Antibacterial activity against methicilin-resistant Staphylococcus aureus isolate 15-2 assessed as inhibition of visible growth of bacteria incubated for 24 hrs by CLSI protocol based broth-dilution method; format: functional
[3] = test system: Staphylococcus aureus; test: Antibacterial activity against methicillin resistant Staphylococcus aureus USA 300 infected in peritonitis sepsis CD-1 mouse model assessed as mouse survival rate at 40 mg/kg, iv administered as double dose with 6 hrs interval and measured after 7 days relative to control; format: functional; settings: USA 300, 168 h, time 7 day
[4] = test system: Staphylococcus aureus; test: Antibacterial activity against methicillin-resistant Staphylococcus aureus USA 300 assessed as inhibition of bacterial growth at 1 times of MIC measured upto 24 hrs by time-kill kinetics assay; format: functional, organism-based
[5] = test system: Enterococcus faecium; test: Antibacterial activity against pleuromutilin-resistant Enterococcus faecium 18SC29-2 harboring (lsa(E)-) genotype assessed as inhibition of visible growth of bacteria incubated for 24 hrs by CLSI protocol based broth-dilution method; format: functional
[6] = test system: Enterococcus faecalis; test: Antibacterial activity against Enterococcus faecalis ATCC 29212 assessed as inhibition of visible growth of bacteria incubated for 24 hrs by CLSI protocol based broth-dilution method; format: functional
[7] = test system: Staphylococcus aureus; test: Antibacterial activity against Staphylococcus aureus ATCC 25923 assessed as inhibition of visible growth of bacteria incubated for 24 hrs by CLSI protocol based broth-dilution method; format: functional
[8] = test system: Staphylococcus epidermidis; test: Antibacterial activity against Staphylococcus epidermidis ATCC 12228 assessed as inhibition of visible growth of bacteria incubated for 24 hrs by CLSI protocol based broth-dilution method; format: functional
[9] = test system: Staphylococcus aureus; test: Antibacterial activity against methicillin-resistant Staphylococcus aureus USA 300 assessed as number of colonies with prevalence of spontaneous mutation at 4 times of MIC incubated for 48 hrs by agar dilution assay; format: functional
[10] = test system: Staphylococcus aureus; test: Antibacterial activity against Staphylococcus aureus ATCC 700788 assessed as inhibition of visible growth of bacteria incubated for 24 hrs by CLSI protocol based broth-dilution method; format: functional
[11] = Stability in human liver microsomes assessed as drug metabolism at 1 uM measured within 1 hrs in presence of NADPH by LC-MS analysis; format: ADME, Microsome; settings: read-out: Drug metabolism
[12] = test system: HUVEC; test: Cytotoxicity against HUVEC cells incubated for 48 hrs by MTT assay; format: toxicity, cell-based; settings: human
[13] = test system: Escherichia coli; test: Antibacterial activity against Escherichia coli ATCC 25922 assessed as inhibition of visible growth of bacteria incubated for 24 hrs by CLSI protocol based broth-dilution method; format: functional
[14] = test system: Streptococcus pneumoniae; test: Antibacterial activity against penicillin resistant Streptococcus pneumoniae isolate 20-3 assessed as inhibition of visible growth of bacteria incubated for 24 hrs by CLSI protocol based broth-dilution method; format: functional
[15] = test system: Staphylococcus aureus; test: Antibacterial activity against methicillin-resistant Staphylococcus aureus USA 300 assessed as number of colonies with prevalence of spontaneous mutation at 8 times of MIC incubated for 48 hrs by agar dilution assay; format: functional
[16] = test system: Acinetobacter baumannii; test: Antibacterial activity against Acinetobacter baumannii ATCC 19606 assessed as inhibition of visible growth of bacteria incubated for 24 hrs by CLSI protocol based broth-dilution method; format: functional
[17] = test system: Staphylococcus aureus; test: Antibacterial activity against Staphylococcus aureus ATCC 29213 assessed as inhibition of visible growth of bacteria incubated for 24 hrs by CLSI protocol based broth-dilution method; format: functional
[18] = test system: Streptococcus pneumoniae; test: Antibacterial activity against penicillin resistant Streptococcus pneumoniae isolate 20-2 assessed as inhibition of visible growth of bacteria incubated for 24 hrs by CLSI protocol based broth-dilution method; format: functional
[19] = test system: Staphylococcus aureus; test: Antibacterial activity against Staphylococcus aureus ATCC 33591 assessed as inhibition of visible growth of bacteria incubated for 24 hrs by CLSI protocol based broth-dilution method; format: functional
[20] = test system: Enterococcus faecium; test: Antibacterial activity against pleuromutilin-resistant Enterococcus faecium 18FJZ1-1 harboring (lsa(E)+) genotype assessed as inhibition of visible growth of bacteria incubated for 24 hrs by CLSI protocol based broth-dilution method; format: functional
[21] = test system: Streptococcus pneumoniae; test: Antibacterial activity against penicillin resistant Streptococcus pneumoniae isolate 20-1 assessed as inhibition of visible growth of bacteria incubated for 24 hrs by CLSI protocol based broth-dilution method; format: functional
[22] = test system: Staphylococcus aureus; test: Antibacterial activity against methicillin-resistant Staphylococcus aureus J1 harboring (lsa(E)+) genotype assessed as inhibition of visible growth of bacteria incubated for 24 hrs by CLSI protocol based broth-dilution method; format: functional
[23] = test system: Staphylococcus aureus; test: Antibacterial activity against Staphylococcus aureus ATCC 43300 assessed as inhibition of visible growth of bacteria incubated for 24 hrs by CLSI protocol based broth-dilution method; format: functional
[24] = test system: Enterococcus faecalis; test: Antibacterial activity against Enterococcus faecalis HB 24-4 assessed as inhibition of visible growth of bacteria incubated for 24 hrs by CLSI protocol based broth-dilution method; format: functional
[25] = test system: Streptococcus pneumoniae; test: Antibacterial activity against penicillin sensitive Streptococcus pneumoniae isolate 20-1 assessed as inhibition of visible growth of bacteria incubated for 24 hrs by CLSI protocol based broth-dilution method; format: functional
[26] = Stability in rat liver microsomes assessed as drug metabolism at 1 uM measured within 1 hrs in presence of NADPH by LC-MS analysis; format: ADME, Microsome; settings: read-out: Drug metabolism
[27] = test system: HEK293; test: Cytotoxicity against HEK293 cells incubated for 48 hrs by MTT assay; format: toxicity, cell-based; settings: human, hek293, 48 h
[28] = test system: Staphylococcus aureus; test: Antibacterial activity against Staphylococcus aureus USA 300 assessed as inhibition of visible growth of bacteria incubated for 24 hrs by CLSI protocol based broth-dilution method; format: functional
[29] = Acute toxicity in male CD-1 mouse assessed as effect on survival at 40 mg/kg, iv administered as single dose for 7 days; format: organism-based; settings: in vivo, 168 h, time 7 day
[30] = test system: Staphylococcus aureus; test: Antibacterial activity against Staphylococcus aureus ATCC 700699 assessed as inhibition of visible growth of bacteria incubated for 24 hrs by CLSI protocol based broth-dilution method; format: functional
[31] = Stability in mouse liver microsomes assessed as drug metabolism at 1 uM measured within 1 hrs in presence of NADPH by LC-MS analysis; format: ADME, Microsome; settings: read-out: Drug metabolism
[32] = test system: Staphylococcus simulans; test: Antibacterial activity against pleuromutilin-resistant Staphylococcus simulans isolate 55-1 harboring cfr+ genotype assessed as inhibition of visible growth of bacteria incubated for 24 hrs by CLSI protocol based broth-dilution method; format: functional
[33] = test system: Staphylococcus epidermidis; test: Antibacterial activity against methicillin-sensitive Staphylococcus epidermidis isolate 20-15 assessed as inhibition of visible growth of bacteria incubated for 24 hrs by CLSI protocol based broth-dilution method; format: functional
[34] = test system: Staphylococcus aureus; test: Antibacterial activity against methicillin resistant Staphylococcus aureus USA 300 infected in peritonitis sepsis CD-1 mouse model assessed as mouse survival rate at 40 mg/kg, iv administered as single dose and measured after 7 days relative to control; format: functional; settings: USA 300, 168 h, time 7 day
[35] = test system: Staphylococcus aureus; test: Bactericidal activity against methicillin-resistant Staphylococcus aureus USA 300 assessed as inhibition of bacterial growth at 8 times of MIC by time kill kinetics assay; format: functional, organism-based; settings: time <= 24.0 hrs, TDE = time-dependent effect
[36] = test system: Staphylococcus epidermidis; test: Antibacterial activity against methicillin-resistant Staphylococcus epidermidis isolate 20-26 assessed as inhibition of visible growth of bacteria incubated for 24 hrs by CLSI protocol based broth-dilution method; format: functional
[37] = test system: Staphylococcus epidermidis; test: Antibacterial activity against methicillin-resistant Staphylococcus epidermidis isolate 20-28 assessed as inhibition of visible growth of bacteria incubated for 24 hrs by CLSI protocol based broth-dilution method; format: functional
[38] = test system: Staphylococcus epidermidis; test: Antibacterial activity against methicillin-resistant Staphylococcus epidermidis isolate 20-29 assessed as inhibition of visible growth of bacteria incubated for 24 hrs by CLSI protocol based broth-dilution method; format: functional
[39] = test system: Staphylococcus epidermidis; test: Antibacterial activity against methicillin-resistant Staphylococcus epidermidis isolate 20-27 assessed as inhibition of visible growth of bacteria incubated for 24 hrs by CLSI protocol based broth-dilution method; format: functional

Compound	MIC [2] [µg/mL]	MIC [5] [µg/mL]	MIC [6] [µg/mL]	MIC [7] [µg/mL]	MIC [8] [µg/mL]	MIC [10] [µg/mL]	metabolised at 1 h, 1 µM [11] [%]	MIC [13] [µg/mL]	MIC [16] [µg/mL]	MIC [17] [µg/mL]	MIC [19] [µg/mL]	MIC [20] [µg/mL]	MIC [21] [µg/mL]	MIC [22] [µg/mL]	MIC [23] [µg/mL]	MIC [24] [µg/mL]	MIC [25] [µg/mL]	metabolised at 1 h, 1 µM [26] [%]	MIC [28] [µg/mL]	MIC [32] [µg/mL]	other results
C=C[C@]1(C)C[C@@H](OC(=O)CSc2cccc(NC(=O)c3ccc4c(c3)B(O)OC4)c2)[C@]2(C)[C@H](C)CC[C@]3(CCC(=O)[C@H]32)[C@@H](C)[C@@H]1O	≤ 0.03	≤ 0.03	1 (≈ 1.55 µM)	≤ 0.03	0.016 (≈ 0.0248 µM)	≤ 0.03	51.1	32 (≈ 49.6 µM)	> 64	≤ 0.016	≤ 0.03	2 (≈ 3.1 µM)	0.06 (≈ 0.0929 µM)	4 (≈ 6.2 µM)	≤ 0.03	0.25 (≈ 0.387 µM)	0.06 (≈ 0.0929 µM)	52.7	≤ 0.03	1 (≈ 1.55 µM)	MIC [1]: 0.06 µg/mL (≈ 0.0929 µM); survival at 40 mg/kg [3]: 50%; Activity [4]: Active; Activity [9]: <4.7 10^-11No_unit; Activity [12]: Non-Toxic; MIC [14]: ≤ 0.03 µg/mL; Activity [15]: <4.7 10^-11No_unit; MIC [18]: 0.06 µg/mL (≈ 0.0929 µM); Activity [27]: Non-Toxic; Activity [29]: Non-Toxic; MIC [30]: ≤ 0.03 µg/mL; metabolised at 1 h, 1 µM [31]: 67.2%; MIC [33]: ≤ 0.03 µg/mL; survival at 40 mg/kg [34]: 17%; Activity [35]: Tde
C=C[C@]1(C)C[C@@H](OC(=O)CS[C@@H]2C[C@H]3CC[C@@H](C2)N3C)[C@]2(C)[C@H](C)CC[C@]3(CCC(=O)[C@H]32)[C@@H](C)[C@@H]1O [RETAPAMULIN]		0.125 (≈ 0.241 µM)										32 (≈ 61.8 µM)		> 32						32 (≈ 61.8 µM)	
C=C[C@]1(C)C[C@@H](OC(=O)CSC(C)(C)CNC(=O)c2ccc3c(c2)B(O)OC3)[C@]2(C)[C@H](C)CC[C@]3(CCC(=O)[C@H]32)[C@@H](C)[C@@H]1O		0.125 (≈ 0.2 µM)			0.063 (≈ 0.101 µM)					0.063 (≈ 0.101 µM)		8 (≈ 12.8 µM)		16 (≈ 25.6 µM)						2 (≈ 3.2 µM)	
C=C[C@]1(C)C[C@@H](OC(=O)CSCCN(CC)CC)[C@]2(C)[C@H](C)CC[C@]3(CCC(=O)[C@H]32)[C@@H](C)[C@@H]1O [TIAMULIN]		2 (≈ 4.05 µM)										> 32		> 32						> 32	
C=C[C@]1(C)C[C@@H](OC(=O)CSc2cccc(NC(=O)c3ccc(B(O)O)cc3)c2)[C@]2(C)[C@H](C)CC[C@]3(CCC(=O)[C@H]32)[C@@H](C)[C@@H]1O	≤ 0.03	≤ 0.03	0.25 (≈ 0.395 µM)	≤ 0.03	0.016 (≈ 0.0253 µM)	≤ 0.03	78.8	64 (≈ 101 µM)	> 64	≤ 0.016	≤ 0.03	0.5 (≈ 0.789 µM)	0.06 (≈ 0.0947 µM)	2 (≈ 3.16 µM)	≤ 0.03	0.25 (≈ 0.395 µM)	≤ 0.03	84.6	≤ 0.03	1 (≈ 1.58 µM)	Activity [4]: Active; Activity [9]: <4.7 10^-11No_unit; Activity [15]: <4.7 10^-11No_unit; MIC [30]: ≤ 0.03 µg/mL; metabolised at 1 h, 1 µM [31]: 87.5%; MIC [33]: ≤ 0.03 µg/mL; Activity [35]: Tde
C=C[C@]1(C)C[C@@H](OC(=O)CS[C@@H]2CC[C@@H](N)C[C@H]2O)[C@]2(C)[C@H](C)CC[C@]3(CCC(=O)[C@H]32)[C@@H](C)[C@@H]1O [LEFAMULIN]	0.5 (≈ 0.985 µM)		32 (≈ 63 µM)	≤ 0.25		0.5 (≈ 0.985 µM)	84	8 (≈ 15.8 µM)	> 64	0.25 (≈ 0.492 µM)	0.25 (≈ 0.492 µM)		1 (≈ 1.97 µM)		0.25 (≈ 0.492 µM)	2 (≈ 3.94 µM)	1 (≈ 1.97 µM)	80.2	0.25 (≈ 0.492 µM)		MIC [1]: 1 µg/mL (≈ 1.97 µM); MIC [36]: 0.5 µg/mL (≈ 0.985 µM); MIC [14]: 1 µg/mL (≈ 1.97 µM); MIC [37]: 0.25 µg/mL (≈ 0.492 µM); MIC [18]: 1 µg/mL (≈ 1.97 µM); MIC [38]: 0.125 µg/mL (≈ 0.246 µM); MIC [39]: 0.25 µg/mL (≈ 0.492 µM); MIC [30]: 0.25 µg/mL (≈ 0.492 µM); metabolised at 1 h, 1 µM [31]: 41.4%; MIC [33]: 0.25 µg/mL (≈ 0.492 µM); survival at 40 mg/kg [34]: 33%
